In patent US9073855B2, “BCL-2 selective apoptosis-inducing agents for the treatment of cancer and immune diseases” (AbbVie Inc., priority 2008, dated 2015):
Like-named read-outs stand apart in the source and are kept apart here.

Legend:
Canine platelets = assay: Platelet cell viability assay (platelet-rich plasma, Cell Titer Glo); assay type: cell-based; settings: Canis lupus familiaris, 5 h, isolated canine platelets ex vivo, five hours at 37° C.
Procedure, shortened: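 Isolated canine platelets were incubated ex vivo with a range of compound concentrations. After 20 min equilibration at room temperature, viability was measured by Cell Titer Glo luminescence.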

FL5.12/Bcl-2 cells = assay: FL5.12/Bcl-2 cell viability assay under IL-3 withdrawal (CellTitre Glo); assay type: cell-based, murine; settings: Mus musculus, IL-3 withdrawn 48 hrs, then 24 hrs with compound
Procedure, shortened: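 Bcl-2-overexpressing murine FL5.12 transfectants underwent IL-3 removal for 48 hrs before a 24 hr compound treatment. Cell viability was quantified with CellTitre Glo.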

circulating platelets [1] = settings: following injection into C57BL/6 mice; cited from earlier work
circulating platelets [2] = settings: following injection in beagle canines; cited from earlier work

For `CN(C)CC[C@H](CSc1ccccc1)Nc1ccc(S(=O)(=O)NC(=O)c2ccc(N3CCN(Cc4ccccc4-c4ccc(Cl)cc4)CC3)cc2)cc1[N+](=O)[O-]` [ABT-737, 4-(4-((4′-chloro-1,1′-biphenyl-2-yl)methyl)piperazin-1-yl)-N-((4-(((1R)-3-(dimethylamino)-1-((phenylthio)methyl)propyl)amino)-3-nitrophenyl)sulfonyl)benzamide, reference compound], the EC50 (Canine platelets) is given as 282 nM, the EC50 (FL5.12/Bcl-2 cells) is given as 25 nM and the “effect on circulating platelets” value (circulating platelets [1]) is given as “rapid, concentration dependant decrease in circulating platelets”. The “effect on circulating platelets” value (circulating platelets [2]) was “rapid, concentration dependant decrease in circulating platelets”.
